From ChEMBL document CHEMBL4699578, “Next generation quorum sensing inhibitors: Accounts on structure activity relationship studies and biological activities” (Bioorg Med Chem, 2020) come the findings set out here.

Assay [1] in a line: Inhibition of quorum sensing system in Staphylococcus aureus.
For assay [2], the system named is Vibrio campbellii ATCC BAA-1116. The experiment in a line: Inhibition of quorum sensing system in Vibrio harveyi BB120 assessed as delay time for the onset of bioluminescence at 50 ug/ml measured every 10 mins after 5 min of double orbital stirring during 11 hrs 50 mins by luminescence method. The conditions noted are these: dose 50.0 µg/ml, time 710.0 min.
A short description of assay [3]: Inhibition of quorum sensing system in Pseudomonas aeruginosa.
Assay [4] in a line: Inhibition of quorum sensing system in Escherichia coli O157:H7.
The nature of assay [5]: Inhibition of quorum sensing system in Burkholderia cepacia.
Assay [6] deals with Pseudomonas aeruginosa. The experiment in a line: Inhibition of quorum sensing system in Pseudomonas aeruginosa assessed as reduction in biofilm formation at 250 uM incubated for 24 hrs by crystal violet staining based method relative to control.
Assay [7] can be described thus: Inhibition of LuxR in Escherichia coli Top10 assessed as reduction in GFP production using 3OC6HSL as substrate by fluorescence method.
The nature of assay [8]: Inhibition of quorum sensing system in Pseudomonas aeruginosa PAO1.
In assay [9] the test system is Escherichia coli. The experiment in a line: Inhibition of quorum sensing system in Escherichia coli MT102 at 250 uM measured after 15 hrs by fluorescence method relative to control.
The subject of assay [10] is Escherichia coli. The experiment in a line: Inhibition of quorum sensing system in Escherichia coli assessed as reduction in biofilm formation at 250 uM incubated for 24 hrs by crystal violet staining based method relative to control.
For assay [11], the system named is Pseudomonas aeruginosa. Description: Inhibition of quorum sensing system in Pseudomonas aeruginosa MH602 harboring lasB promoter measured at 250 uM every 30 mins over 22 hrs by fluorescence method relative to control. The conditions noted are these: time hrs >22.
Assay [12] can be described thus: Inhibition of quorum sensing system in Pseudomonas aeruginosa PAO1 assessed as reduction in […] incubated for 18 hrs by congo red staining based assay.
Assay [13] is described as follows: Inhibition of quorum sensing system in Pseudomonas aeruginosa PAO1 assessed as reduction in pyocyanin production incubated for 8 hrs.
Assay [14] concerns the target T1, Transcriptional activator protein LuxR (Aliivibrio fischeri, UniProt P12746).
T1 sequence (P12746 whole entry): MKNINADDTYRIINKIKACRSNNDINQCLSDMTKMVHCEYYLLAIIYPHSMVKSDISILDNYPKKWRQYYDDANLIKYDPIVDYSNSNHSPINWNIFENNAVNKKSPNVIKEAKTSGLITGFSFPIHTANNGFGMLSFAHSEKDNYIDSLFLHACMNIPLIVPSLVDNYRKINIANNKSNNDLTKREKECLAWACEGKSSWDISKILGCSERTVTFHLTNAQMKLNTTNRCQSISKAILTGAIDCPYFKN
The experiment in a line: Antagonist activity at Vibrio fischeri luxR expressed in Escherichia coli NM522 in presence of 3-oxo-C6-HSL.

Assay [15] is described as follows: Inhibition of quorum sensing system in Stenotrophomonas maltophilia.
Assay [16] can be described thus: Inhibition of quorum sensing system in Chromobacterium violaceum CV026 assessed as reduction in violacein production incubated for 16 to 18 hrs by spot test method.
Assay [17] is described as follows: Inhibition of quorum sensing system in Proteus mirabilis.
A short description of assay [18]: Antagonist activity at Vibrio fischeri quorum sensing system in presence of OHHL by bioluminescence method. Set-up: species or system Aliivibrio fischeri.
In assay [19] the test system is Pseudomonas aeruginosa. The experiment in a line: Antagonist activity at Pseudomonas aeruginosa PAO-JP2 LasR assessed as reduction in GFP production incubated for 6 hrs in presence of OdDHL by fluorescence method relative to control. Also noted: scale not given: the % may be the effect or the level left. The following applies: filed as antagonist.
A short description of assay [20]: Antagonist activity at Pseudomonas aeruginosa PAO-JP2 LasR assessed as reduction in GFP production incubated for 6 hrs in presence of OdDHL by fluorescence method.

As usually defined, the IC50 is the midpoint of a concentration-inhibition curve. In turn, `CC1=CC(=O)C(C(C)C)=CC1=O` [THYMOQUINONE] gave an IC50 in [1] of 130 µM.

For `C=C1CCC[C@H]2[C@](C)(Cc3c(O)c(OC(C)=O)cc(OC)c3OC(C)=O)[C@@H](C)CC[C@]12C`, the TIME in assay [2] stood at 1 h.

The compound `O=C(O)/C=C/c1ccccc1` [CINNAMIC ACID] gave an IC50 in assay [3] of 1680 µM.

Turning to `O=c1c(O)c(-c2ccc(O)c(O)c2)oc2cc(O)cc(O)c12` [QUERCETIN], the midpoint of inhibition in assay [4], the IC50, lay at 20 µM.

For `O=c1oc2c(O)c(O)cc3c(=O)oc4c(O)c(O)cc1c4c23` [ELLAGIC ACID], in assay [5], it took 132 µM to reach half-maximal inhibition (IC50).

The inhibition is the share of the control response that was lost under treatment. Turning to `Cc1ccc2c(c1)C(=O)C(=O)N2C(=O)CCl`, the inhibition in assay [6] was found to be 71.2%.

Take `CCOC(=O)/C=C1\CC(NCc2ccc(C)cc2)C(=O)N1Cc1ccc(C)cc1` (stereo unspecified): the IC50 in [7] amounted to 50 µM.

In turn, `COc1cc(/C=C/C(=O)CC(=O)/C=C/c2ccc(O)c(OC)c2)ccc1O` [CURCUMIN] gave an IC50 in assay [8] of 3 µM.

With `C#CCNC(=O)C(=O)c1cc(Br)ccc1NC(=O)CCl`, the inhibition in [6] came to 66.5%.

`O=C(O)c1ccccc1O` [SALICYLIC ACID] returned an IC50 in [3] of 1440 µM.

With `C#CCNC(=O)C(=O)c1ccccc1NC(=O)CCl`, the inhibition in assay [6] amounted to 66.9%; in [9], 71.5%.

On to `O=C1C(=O)N(C(=O)CCl)c2ccccc21`, for which the inhibition in assay [10] came to 87.9%.

On to `C#CCNC(=O)C(=O)c1cc(Cl)ccc1NC(=O)CCl`, for which the inhibition in assay [10] was found to be 90.8%; in [11] it was 71.5%; in assay [9] it was 72.1%.

In the case of `O=C1C[C@@H](c2ccc(O)cc2)Oc2cc(O)cc(O)c21` [NARINGENIN], the IC50 in assay [12] and in assay [13] was 4000 µM throughout.

The compound `Oc1cc(O)c2c(c1)O[C@H](c1ccc(O)c(O)c1)[C@@H](O)C2` [CIANIDANOL] registered an IC50 in [8] of 4000 µM.

Take `C=C1CCC[C@H]2[C@](C)(CC3=C(O)C(=O)C=C(O)C3=O)[C@@H](C)CC[C@]12C`: in assay [2], the TIME was found to be 2.5 h.

Take `Nc1ccccc1[N+](=O)[O-]` [2-NITROANILINE]: in [14], the IC50 is 85 µM.

As for `COC1=CC(=O)C(O)=C(C[C@]2(C)[C@@H](C)CC[C@]3(C)OC(=O)CCC[C@@H]23)C1=O`, in assay [2], the TIME was 0.667 h.

As for `O=C(/C=C/c1ccc(O)c(O)c1)O[C@@H]1C[C@](O)(C(=O)O)C[C@@H](O)[C@H]1O` [CHLOROGENIC ACID], in assay [15], it took 22 µM to reach half-maximal inhibition (IC50).

For the compound `O=C(Nc1ccc(S(=O)(=O)N[C@H]2CCOC2=O)cc1)c1sccc1Cl`, the IC50 in assay [16] was determined as 6.19 µM.

Turning to `Oc1ccc(/C=C/c2cc(O)cc(O)c2)cc1` [RESVERATROL], the IC50 in [17] came out at 65 µM.

Regarding `O=C1c2c(O)cc(O)cc2O[C@H](c2ccc(O)c(O)c2)[C@H]1O` [(+)-TAXIFOLIN], the IC50 in assay [12] and in assay [13] was 4000 µM each time.

`O=C(N[C@H]1CCOC1=O)OCc1ccc([N+](=O)[O-])cc1`: in [18], the IC50 amounted to 22 µM.

In turn, `O=C(OC[C@H]1O[C@@H](OC(=O)c2cc(O)c(O)c(OC(=O)c3cc(O)c(O)c(O)c3)c2)[C@H](OC(=O)c2cc(O)c(O)c(OC(=O)c3cc(O)c(O)c(O)c3)c2)[C@@H](OC(=O)c2cc(O)c(O)c(OC(=O)c3cc(O)c(O)c(O)c3)c2)[C@@H]1OC(=O)c1cc(O)c(O)c(OC(=O)c2cc(O)c(O)c(O)c2)c1)c1cc(O)c(O)c(OC(=O)c2cc(O)c(O)c(O)c2)c1` [TANNIC ACID] had an IC50 in assay [1] of 20 µM.

For `C#CCNC(=O)C(=O)c1cc(F)ccc1NC(=O)CCl`, the figures for the inhibition in assay [10], in assay [11] and in assay [9] were 89.5%, 71.5% and 73.5%, respectively.

For the compound `CCCCCCCCCNC(=O)CC(=O)c1ccco1`, in assay [19], the Activity was determined as 96%. Also, in assay [20], the IC50 turned out to be 1.2 µM.

`C[C@H]1CC[C@]2(C)C(=O)CCC[C@H]2[C@]1(C)CC1=C(O)C(=O)CC1=O`: the TIME in assay [2] turned out to be 0.667 h.

For the compound `O=C1C[C@@H](c2ccc(O)c(O)c2)Oc2cc(O)cc(O)c21` [ERIODICTYOL], the IC50 in [12] and in [13] was 4000 µM each time.

Consider `O=C/C=C/c1ccccc1` [CINNAMALDEHYDE], for which half-maximal inhibition in [8] (IC50) required 5900 µM.

For `O=C(N[C@H]1CCOC1=O)SCc1ccc([N+](=O)[O-])cc1`, the IC50 in [18] came to 23 µM.

Regarding `O=C1Cn2nncc2CNC(=O)C(=O)c2ccccc2NC(=O)Cn2nncc2CNC(=O)C(=O)c2ccccc2N1`, the inhibition in assay [11] was found to be 73.5%.

The compound `O=c1c(O)c(-c2ccc(O)cc2)oc2cc(O)cc(O)c12` [KAEMPFEROL] came in with an IC50 in [1] of 220 µM.
